Measured values from the Kinase Knowledgebase extract (Sharma et al. 2016).

Biological target: EGFR (UniProt P00533)
Sequence (P00533 whole entry, looked up): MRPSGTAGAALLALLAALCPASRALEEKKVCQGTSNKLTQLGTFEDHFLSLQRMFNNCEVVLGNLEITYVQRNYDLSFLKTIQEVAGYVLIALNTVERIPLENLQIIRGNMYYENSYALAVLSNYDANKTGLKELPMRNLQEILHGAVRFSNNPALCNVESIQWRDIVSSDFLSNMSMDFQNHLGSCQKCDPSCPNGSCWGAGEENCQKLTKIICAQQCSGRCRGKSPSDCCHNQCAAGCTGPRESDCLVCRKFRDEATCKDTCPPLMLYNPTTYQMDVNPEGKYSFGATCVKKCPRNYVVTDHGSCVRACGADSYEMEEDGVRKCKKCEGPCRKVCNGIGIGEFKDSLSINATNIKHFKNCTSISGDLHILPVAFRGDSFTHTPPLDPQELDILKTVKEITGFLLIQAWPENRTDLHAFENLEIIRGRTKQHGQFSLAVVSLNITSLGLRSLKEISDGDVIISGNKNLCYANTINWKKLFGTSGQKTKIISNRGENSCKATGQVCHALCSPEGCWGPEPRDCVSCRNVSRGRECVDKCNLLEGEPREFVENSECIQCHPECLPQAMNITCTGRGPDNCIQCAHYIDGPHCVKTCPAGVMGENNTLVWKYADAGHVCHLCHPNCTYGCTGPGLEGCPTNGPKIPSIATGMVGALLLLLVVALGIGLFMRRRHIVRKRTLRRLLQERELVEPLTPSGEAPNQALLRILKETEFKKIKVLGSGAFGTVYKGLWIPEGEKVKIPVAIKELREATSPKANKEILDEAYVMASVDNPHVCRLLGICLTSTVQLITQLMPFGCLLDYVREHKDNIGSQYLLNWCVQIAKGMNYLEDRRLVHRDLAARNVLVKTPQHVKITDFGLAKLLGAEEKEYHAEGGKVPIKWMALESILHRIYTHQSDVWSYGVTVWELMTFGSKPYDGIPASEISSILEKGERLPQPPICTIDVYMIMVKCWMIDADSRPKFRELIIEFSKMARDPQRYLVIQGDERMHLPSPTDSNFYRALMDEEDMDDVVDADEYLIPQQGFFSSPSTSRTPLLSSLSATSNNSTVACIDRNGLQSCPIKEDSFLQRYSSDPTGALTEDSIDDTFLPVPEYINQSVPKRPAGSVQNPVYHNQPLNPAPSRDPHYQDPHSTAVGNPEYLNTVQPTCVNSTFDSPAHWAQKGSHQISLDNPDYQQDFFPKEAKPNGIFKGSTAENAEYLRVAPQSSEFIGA

| Compound | IC50 |
| --- | --- |
| COc1cc2c(Nc3ccc(Cl)c(Cl)c3)ncnc2cc1OCC1CN(CCCCCC#N)CCO1 (stereo not given) | < 50 nM |
| COc1cc2c(Nc3ccc(Cl)c(Cl)c3)ncnc2cc1OCC1CN(CCC2CCCCC2)CCCO1 (stereo not given) | < 50 nM |
| COc1cc2c(Nc3ccc(Cl)c(Cl)c3F)ncnc2cc1OC[C@@H]1CN(C)CC(=O)N1 | < 50 nM |
| COC(=O)CCCCN1CCOC(COc2cc3ncnc(Nc4ccc(Cl)c(Cl)c4)c3cc2OC)C1 (stereo not given) | < 50 nM |
| CCCC(CCC)C(=O)N1CCOC(COc2cc3ncnc(Nc4ccc(Cl)c(Cl)c4)c3cc2OC)C1 (stereo not given) | < 50 nM |
| COc1cc2c(Nc3ccc(Cl)c(Cl)c3)ncnc2cc1OCCC1CCCCC1 | < 50 nM |
| COc1cc2c(Nc3cc(Cl)c(Cl)cc3F)ncnc2cc1OCC1CN(C)C(C)(C)CO1 (stereo not given) | < 50 nM |
| COc1cc2c(Nc3ccc(Cl)c(Cl)c3)ncnc2cc1OCc1nc(CN2CCCN(C)CC2)cs1 | < 50 nM |
| COc1cc2c(Nc3cc(Cl)c(Cl)cc3F)ncnc2cc1O[C@H]1CO[C@H]2[C@@H]1OC[C@@H]2OC | < 50 nM |
| COc1cc2c(Nc3ccc(Cl)c(Cl)c3)ncnc2cc1O[C@H]1CO[C@H]2[C@@H]1OC[C@@H]2OC | < 50 nM |
| COc1cc2c(Nc3ccc(Cl)c(Cl)c3)ncnc2cc1OCC1CN(CCCOC2CCCCO2)CCCO1 (stereo not given) | < 50 nM |
| COc1cc2c(Nc3ccc(Cl)c(Cl)c3)ncnc2cc1OC[C@H]1C[C@@H]2CN(C)C[C@@H]2C1 | < 50 nM |
| COc1cc2c(Nc3ccc(Cl)c(Cl)c3)ncnc2cc1OCC1CN(CCC2OCCCO2)CCO1 (stereo not given) | < 50 nM |
| COc1cc2c(Nc3ccc(Cl)c(Cl)c3)ncnc2cc1OCc1nc(N2CCOCC2)no1 | < 50 nM |
| COc1cc2c(Nc3ccc(C)c(Cl)c3Cl)ncnc2cc1OCC1CN(C)CCO1 (stereo not given) | < 50 nM |
| COc1cc2c(Nc3ccc(Cl)c(Cl)c3Cl)ncnc2cc1O[C@@H]1CO[C@@H]2[C@H]1OC[C@H]2F | < 50 nM |
| COCCN1CCOC(COc2cc3ncnc(Nc4ccc(Cl)c(Cl)c4)c3cc2OC)C1 (stereo not given) | < 50 nM |
| COc1cc2c(Nc3ccc(Cl)c(Cl)c3)ncnc2cc1OCCC1OCCCO1 | < 50 nM |
| CCN1CCCCC1c1nc(COc2cc3ncnc(Nc4ccc(Cl)c(Cl)c4)c3cc2OC)no1 (stereo not given) | < 50 nM |
| COc1cc2c(Nc3ccc(Cl)c(Cl)c3)ncnc2cc1OCc1csc(CN2CCCC2)n1 | < 50 nM |

| Compound | IC50 |
| --- | --- |
| COc1cc2c(Nc3ccc(Cl)c(Cl)c3)ncnc2cc1OCCC1OCCO1 | < 50 nM |
| COc1cc2c(Nc3ccc(Cl)c(Cl)c3)ncnc2cc1OCC1CN(S(=O)(=O)c2ccc(C)cc2)CCO1 (stereo not given) | < 50 nM |
| CCCN1CCCOC(COc2cc3ncnc(Nc4ccc(Cl)c(Cl)c4)c3cc2OC)C1 (stereo not given) | 50 to 1000 nM |
| CCN1CCN(C)CC1COc1cc2ncnc(Nc3ccc(Cl)c(Cl)c3)c2cc1OC (stereo not given) | < 50 nM |
| COc1cc2c(Nc3ccc(Cl)c(Cl)c3N3CCN(C)CC3)ncnc2cc1O[C@H]1CO[C@@H]2[C@H]1OC[C@@H]2F | < 50 nM |
| CCN1CCC[C@H]1c1nc(COc2cc3ncnc(Nc4ccc(Cl)c(Cl)c4)c3cc2OC)cs1 | < 50 nM |
| COc1cc2c(Nc3ccc(C)c(Br)c3)ncnc2cc1O[C@@H]1CO[C@@H]2[C@H]1OC[C@H]2F | < 50 nM |
| COc1cc(OC)c(Nc2ncnc3cc(O[C@@H]4CO[C@@H]5[C@H]4OC[C@H]5F)c(OC)cc23)cc1Cl | < 50 nM |
| COc1cc2c(Nc3ccc(Br)c(Cl)c3)ncnc2cc1O[C@H]1CO[C@@H]2[C@H]1OC[C@@H]2NC(C)=O | < 50 nM |
| COc1cc2c(Nc3ccc(N4CCN(C)CC4)c(Cl)c3Cl)ncnc2cc1O[C@H]1CO[C@@H]2[C@H]1OC[C@@H]2F | < 50 nM |
| COc1cc2c(Nc3ccc(F)c(F)c3F)ncnc2cc1O[C@@H]1CO[C@@H]2[C@H]1OC[C@H]2F | < 50 nM |
| COc1cc2c(Nc3ccc(Cl)c(Cl)c3)ncnc2cc1OCC1CN(C(=O)c2ccc3c(c2)OCO3)CCO1 (stereo not given) | < 50 nM |
| COc1cc2c(Nc3ccc(Cl)c(Cl)c3)ncnc2cc1OCC1CN(C(N)=NC#N)CCO1 (stereo not given) | < 50 nM |
| COCCOc1cc2c(Nc3ccc(Cl)c(Cl)c3)ncnc2cc1OCC1CNCCO1 (stereo not given) | < 50 nM |
| CCN1CCCCC1c1nc(COc2cc3ncnc(Nc4ccc(Cl)c(Cl)c4)c3cc2OC)cs1 (stereo not given) | < 50 nM |
| COc1cc2c(Nc3ccc(Br)c(Cl)c3F)ncnc2cc1OC[C@H]1C[C@@H]2CN(C)C[C@@H]2C1 | < 50 nM |
| COc1cc2c(Nc3ccc(Cl)c(Cl)c3)ncnc2cc1OCc1csc(CO)n1 | < 50 nM |
| COc1cc2c(Nc3ccc(Cl)c(Cl)c3F)ncnc2cc1OC[C@@H]1CN(C)CC(=O)N1C | < 50 nM |
| COc1cc(Nc2ncnc3cc(O[C@@H]4CO[C@@H]5[C@H]4OC[C@H]5F)c(OC)cc23)c(OC)cc1Cl | < 50 nM |

Further lines, results first:

| IC50 | Compound |
| --- | --- |
| < 50 nM | COc1cc2c(Nc3ccc(Cl)c(C(F)(F)F)c3)ncnc2cc1O[C@@H]1CO[C@@H]2[C@H]1OC[C@H]2F |
| < 50 nM | COc1cc2c(Nc3cccc(Br)c3C)ncnc2cc1O[C@H]1CO[C@H]2[C@@H]1OC[C@@H]2OC |
| < 50 nM | CC(C)Oc1cc2c(Nc3ccc(Cl)c(Cl)c3)ncnc2cc1OCC1CNCCO1 (stereo not given) |
| < 50 nM | COc1cc2c(Nc3ccc(Cl)c(Cl)c3)ncnc2cc1OCC1CN(CC(=O)c2ccccc2)CCO1 (stereo not given) |
| < 50 nM | COc1cc2c(Nc3ccc(Br)c(F)c3F)ncnc2cc1OCC1CN(C)CCO1 (stereo not given) |
| < 50 nM | COc1cc2c(Nc3ccc(Br)c(Cl)c3)ncnc2cc1O[C@H]1CO[C@@H]2[C@H]1OC[C@@H]2N(C)C |
| < 50 nM | COCCNC(=NC#N)N1CCOC(COc2cc3ncnc(Nc4ccc(Cl)c(Cl)c4)c3cc2OC)C1 (stereo not given) |
| < 50 nM | COc1cc2c(Nc3ccc(Cl)c(Cl)c3)ncnc2cc1OCC1CN(C2CCN(C)CC2)CCO1 (stereo not given) |
| < 50 nM | COc1cc2c(Nc3ccc(Cl)c(Cl)c3)ncnc2cc1OCc1nc([C@@H]2CCCN2C)no1 |
| < 50 nM | COc1cc2c(Nc3ccc(Cl)c(Cl)c3)ncnc2cc1OCC1CN(C(=O)CCC(C)C)CCO1 (stereo not given) |
| < 50 nM | COc1cc2c(Nc3ccc(F)c(Cl)c3F)ncnc2cc1OCC1CN(C)C(C)(C)CO1 (stereo not given) |
| 50 to 1000 nM | COc1cc2c(Nc3ccc(Cl)c(Cl)c3)ncnc2cc1OCc1ccc2nc(C(F)(F)F)cc(Cl)c2c1 |
| < 50 nM | COc1cc2c(Nc3ccc(Br)c(Cl)c3F)ncnc2cc1OC[C@@H]1CN(C)CC(=O)N1C |
| < 50 nM | COc1cc2c(Nc3ccc(Cl)c(Cl)c3)ncnc2cc1OCC1CN(C(=NC#N)N2CCN(C)CC2)CCO1 (stereo not given) |
| < 50 nM | COc1cc2c(Nc3ccc(Br)c(Cl)c3Cl)ncnc2cc1OC[C@H]1C[C@@H]2CN(C)C[C@@H]2C1 |
| < 50 nM | COc1cc2c(Nc3ccc(Cl)c(Cl)c3)ncnc2cc1OCC1CN(Cc2ccccn2)CCO1 (stereo not given) |
| < 50 nM | COc1cc2c(Nc3ccc(C)c(Br)c3)ncnc2cc1OCC1CN(C)CCO1 (stereo not given) |
| < 50 nM | COc1cc2c(Nc3ccc(Cl)cc3)ncnc2cc1O[C@@H]1CO[C@@H]2[C@H]1OC[C@H]2F |
| < 50 nM | COc1cc2c(Nc3ccc(Br)c(Cl)c3F)ncnc2cc1OCC1CN(C)C(C)(C)CO1 (stereo not given) |
| < 50 nM | COc1cc2c(Nc3ccc(Br)c(Cl)c3)ncnc2cc1O[C@H]1CO[C@H]2[C@@H]1OCC21OCCO1 |
| < 50 nM | COc1cc2c(Nc3ccc(Cl)c(Cl)c3)ncnc2cc1OCC1CN(C2CCC2)CCO1 (stereo not given) |
| < 50 nM | COc1cc2c(Nc3ccc(Cl)c(Cl)c3)ncnc2cc1OC[C@@H]1CN2CCC[C@H]2CO1 |
| < 50 nM | COc1cc2c(Nc3ccc(Cl)c(Cl)c3)ncnc2cc1OCc1c(F)cccc1F |
| < 50 nM | COc1cc2c(Nc3ccc(Br)c(Cl)c3)ncnc2cc1O[C@@H]1CO[C@@H]2[C@H]1OC[C@@H]2O |
| < 50 nM | COc1cc2c(Nc3ccc(Cl)c(Cl)c3)ncnc2cc1OCc1csc(COC(=O)c2ccccc2)n1 |
| < 50 nM | COc1cc2c(Nc3ccc(F)c(Cl)c3F)ncnc2cc1OC[C@@H]1CN2CCC[C@H]2CO1 |
